Reference: patent US3982931A, “N,N-di-sec.butyl-benzamide herbicides” (priority 1967, dated 1976)

What was measured:
Type in all cases: in vivo
artemisia vulgaris L. = assay: herbicidal activity, soil treatment one day after sowing
Portulaca oleracea L. = assay: herbicidal activity of PA 106 against infesting herbs
Source text: (§1) Method of evaluation of the results (of tests):
(§2) 0 = no activity and no difference with respect to the control;
(§3) 1 slight differences with respect to the control;
(§4) 3 = considerable activity with damages that definitely impair the further development of most of the small plants; an activity degree already useful for practical purposes;
(§5) 4 = maximum of activity with lack of germination or total containment of the small plants in the emerging stage.
(§6) In the case of an intermediate activity between two classes of the scale, both values are recorded with the one which corresponds to the preeminent activity preceding.
(§7) TABLE 3 reports data on the herbicidal activity against infesting herbs, while TABLE 4 reports data concerning the activity on useful species of agricultural cultivations. These tables employ the criterion explained previously. The product was spread on the soil one day after sowing, in quantities of 1, 3, 6, 8, 10, 12 and 14 kg/ha.

Digitaria sanguinalis L. = assay: as above
Source text: as §1, §2, §3, §4, §5, §6, §7

Papmer rhoeas L. = assay: as above
Source text: as §1, §2, §3, §4, §5, §6, §7

[1] = system: Panichum Dichotomi florum M.; assay: as above
Source text: as §1, §2, §3, §4, §5, §6, §7

Sorghum sp. = assay: as above
Source text: as §1, §2, §3, §4, §5, §6, §7

Gladiolus sp. = assay: activity of PA 106 on useful species (treatment after unearthing the tubers)
Source text: as §1, §2, §3, §4, §5, §6, §7
In the case of gladiolus, the treatment was carried out after unearthing the tubers.

vicia sativa L. = assay: herbicidal activity, soil treatment one day after sowing
In short: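 Pre-emergence soil treatment one day after sowing; activity scored visually on a […] scale against untreated control, from slight difference (1) to no germination or total containment at emergence (4); intermediate activity recorded as both classes, preeminent value first.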

pisum sativum L. (pea) = assay: activity on agrarian species, soil treatment one day after sowing
rice [2] = assay: plot-test in open field planted with rice; details: even at 30 kg/ha of active substance
rice [3] = assay: Example 3 rice field test, granular composition; details: 4, 6, 8 and 10 kg/ha
Description: (§8) In this test a granular composition of PA 106 containing 5% of active principle and 95% of bentonite was used. The treatment was carried out in a rice field with areas of from 900 to 1000 sq.m on naked soil flooded just shortly before the sowing of the rice. There were used doses of granulate equal to 4, 6, 8 and 10 kg of active substance per hectar of surface.

Echinocloa crus-galli = assay: Example 3 rice field test, granular composition; details: 6 kg of PA 106 per hectar
Description: as §8

chenopodium album L. = assay: herbicidal activity, soil treatment one day after sowing

CCC(C)N(C(=O)c1ccc(Cl)c(Cl)c1)C(C)CC (stereo not drawn) [PA106, 3,4-dichloro-N,N-di-sec.butyl-benzamide]
herbicidal activity, Table 3 (artemisia vulgaris L.; 1 kg/ha): 0 | activity on B, 0-4 scale (artemisia vulgaris L.; 2 kg/ha): 0-1 | herbicidal activity, Table 3 (artemisia vulgaris L.; 3 kg/ha): 1 | activity on B, 0-4 scale (artemisia vulgaris L.; 4 kg/ha): 1-2 | activity on B, 0-4 scale (artemisia vulgaris L.; 6 kg/ha): 3 | herbicidal activity, Table 3 (artemisia vulgaris L.; 6 kg/ha): 3 | herbicidal activity, Table 3 (artemisia vulgaris L.; 8 kg/ha): 3 | herbicidal activity, Table 3 (artemisia vulgaris L.; 10 kg/ha): 3 | herbicidal activity, Table 3 (artemisia vulgaris L.; 12 kg/ha): 4/3 | herbicidal activity, Table 3 (artemisia vulgaris L.; 14 kg/ha): 4 | herbicidal activity, Table 3 (Portulaca oleracea L.; 1 kg/ha): 0 | herbicidal activity, Table 3 (Portulaca oleracea L.; 3 kg/ha): 1/2 | herbicidal activity, Table 3 (Portulaca oleracea L.; 6 kg/ha): 3 | herbicidal activity, Table 3 (Portulaca oleracea L.; 8 kg/ha): 3/4 | herbicidal activity, Table 3 (Portulaca oleracea L.; 10 kg/ha): 4 | herbicidal activity, Table 3 (Portulaca oleracea L.; 12 kg/ha): 4 | herbicidal activity, Table 3 (Portulaca oleracea L.; 14 kg/ha): 4 | herbicidal activity, Table 3 (Digitaria sanguinalis L.; 1 kg/ha): 2/3 | herbicidal activity, Table 3 (Digitaria sanguinalis L.; 3 kg/ha): 4/3 | herbicidal activity, Table 3 (Digitaria sanguinalis L.; 6 kg/ha): 4 | herbicidal activity, Table 3 (Digitaria sanguinalis L.; 8 kg/ha): 4 | herbicidal activity, Table 3 (Digitaria sanguinalis L.; 10 kg/ha): 4 | herbicidal activity, Table 3 (Digitaria sanguinalis L.; 12 kg/ha): 4 | herbicidal activity, Table 3 (Digitaria sanguinalis L.; 14 kg/ha): 4 | herbicidal activity, Table 3 (Papmer rhoeas L.; 1 kg/ha): 0 | herbicidal activity, Table 3 (Papmer rhoeas L.; 3 kg/ha): 1 | herbicidal activity, Table 3 (Papmer rhoeas L.; 6 kg/ha): 2 | herbicidal activity, Table 3 (Papmer rhoeas L.; 8 kg/ha): 3 | herbicidal activity, Table 3 (Papmer rhoeas L.; 10 kg/ha): 4 | herbicidal activity, Table 3 (Papmer rhoeas L.; 12 kg/ha): 4 | herbicidal activity, Table 3 (Papmer rhoeas L.; 14 kg/ha): 4 | herbicidal activity, Table 3 ([1]; 1 kg/ha): 2 | herbicidal activity, Table 3 ([1]; 3 kg/ha): 5/4 | herbicidal activity, Table 3 ([1]; 6 kg/ha): 4 | herbicidal activity, Table 3 ([1]; 8 kg/ha): 4 | herbicidal activity, Table 3 ([1]; 10 kg/ha): 4 | herbicidal activity, Table 3 ([1]; 12 kg/ha): 4 | herbicidal activity, Table 3 ([1]; 14 kg/ha): 4 | herbicidal activity, Table 3 (Sorghum sp.; 1 kg/ha): 1 | herbicidal activity, Table 3 (Sorghum sp.; 3 kg/ha): 3 | herbicidal activity, Table 3 (Sorghum sp.; 6 kg/ha): 4 | herbicidal activity, Table 3 (Sorghum sp.; 8 kg/ha): 4 | herbicidal activity, Table 3 (Sorghum sp.; 10 kg/ha): 4 | herbicidal activity, Table 3 (Sorghum sp.; 12 kg/ha): 4 | herbicidal activity, Table 3 (Sorghum sp.; 14 kg/ha): 4 | activity on useful species, Table 4 (Gladiolus sp.; 1 kg/ha): 0 | activity on useful species, Table 4 (Gladiolus sp.; 3 kg/ha): 0 | activity on useful species, Table 4 (Gladiolus sp.; 6 kg/ha): 0 | activity on useful species, Table 4 (Gladiolus sp.; 8 kg/ha): 0 | activity on useful species, Table 4 (Gladiolus sp.; 10 kg/ha): 0 | activity on useful species, Table 4 (Gladiolus sp.; 12 kg/ha): 0 | activity on useful species, Table 4 (Gladiolus sp.; 14 kg/ha): 0 | activity on F, 0-4 scale (vicia sativa L.; 2 kg/ha): 0 | activity on F, 0-4 scale (vicia sativa L.; 4 kg/ha): 0 | activity on F, 0-4 scale (vicia sativa L.; 6 kg/ha): 0 | activity on useful species, Table 4 (pisum sativum L. (pea); 1 kg/ha): 0 | activity on useful species, Table 4 (pisum sativum L. (pea); 3 kg/ha): 0 | activity on L, 0-4 scale (pisum sativum L. (pea); 6 kg/ha): 0 | activity on useful species, Table 4 (pisum sativum L. (pea); 6 kg/ha): 0 | activity on useful species, Table 4 (pisum sativum L. (pea); 8 kg/ha): 0 | activity on useful species, Table 4 (pisum sativum L. (pea); 10 kg/ha): 0 | activity on useful species, Table 4 (pisum sativum L. (pea); 12 kg/ha): 0 | activity on useful species, Table 4 (pisum sativum L. (pea); 14 kg/ha): 0 | phytotoxic effects on the rice (rice [2]): no phytotoxic effects | damage to rice (rice [3]): without suffering any damage | inhibition of growth of the infestant (Echinocloa crus-galli): for all practical purposes be considered as total | herbicidal activity, Table 3 (chenopodium album L.; 1 kg/ha): 0 | activity on C, 0-4 scale (chenopodium album L.; 2 kg/ha): 0-1 | herbicidal activity, Table 3 (chenopodium album L.; 3 kg/ha): 1 | activity on C, 0-4 scale (chenopodium album L.; 4 kg/ha): 1-2 | activity on C, 0-4 scale (chenopodium album L.; 6 kg/ha): 3 | herbicidal activity, Table 3 (chenopodium album L.; 6 kg/ha): 3 | herbicidal activity, Table 3 (chenopodium album L.; 8 kg/ha): 2/3 | herbicidal activity, Table 3 (chenopodium album L.; 10 kg/ha): 3 | herbicidal activity, Table 3 (chenopodium album L.; 14 kg/ha): 3/4
